Results: a melting point compilation (Tetko et al.; mined from patent text by program, amines drawn as free bases though some values may be those of a salt)

SMILES	melting point [°C]
CN(C)CCC(c1ccc(NC=O)cc1)c1ncc[nH]1 (configuration not stated)	142 to 144
COc1ccc(/C=C/C(=O)c2ccc(C(=O)O)cc2)cc1-c1cccs1	219 to 220
CC(NC(=S)NCC(COC(=O)C(C)(C)C)Cc1ccccc1)c1ccc(NS(C)(=O)=O)cc1 (configuration not stated)	58 to 62
NC(=O)c1ccc(NC(=O)CCc2cnoc2-c2ccccc2)cc1	250 to 251
ON=C(Cl)c1ccc(F)cc1	74.5 to 75
CC(C)NC(=O)C(O)C(Oc1ccccc1)c1ccccc1 (configuration not stated)	166 to 168
CC(C)C#Cc1ncn2c1CN(C)C(=O)c1c(Cl)cccc1-2	128 to 130
Fc1cccc2c(NCCc3ccc(Oc4cccc(C(F)(F)F)n4)cc3)ccnc12	157
Cc1cc(F)ccc1C(=O)c1ccc(F)cc1C	50 to 52
CCn1c2cc(C)ccc2c2c3ccccc3ccc21	123 to 124
O=C(O)c1csc2ccc(OS(=O)(=O)c3ccccc3)cc12	202 to 203
COc1cc(-c2nc3ccccc3[nH]2)cc([N+](=O)[O-])c1O	198 to 200
COC(=O)c1cc(N)n[nH]1	134
COc1cc(OC)cc(-c2cc(=O)c3ccc(OCC(O)CN4CCN(c5ccccc5)CC4)cc3o2)c1 (configuration not stated)	195 to 196
Cc1cc(N)cnc1Oc1cccc(C(C)(C)C)c1	83 to 84
CSC(=NC#N)N(C)N=Cc1ccccc1	132 to 133
CC(C)(C)NC(=O)[C@@H]1CC(=O)CN1C(=O)[C@@H](O)[C@H](Cc1ccccc1)NC(=O)[C@H](CC(N)=O)NC(=O)OCc1ccccc1	116 to 120
Cc1c(C)c2c(c(C)c1OC(=O)c1ccccc1)SC(CCCOC(=O)c1ccccc1)O2 (configuration not stated)	114 to 116
BrCc1cccc(OCCCCOc2ccccc2)c1	47 to 49
Oc1ccccc1Cc1ccc2ccccc2c1O	124 to 125
Cc1ccc2c(c1)N=C(NCc1cccnc1)c1ccccc1N2	186 to 187

SMILES	melting point [°C]
O=C1Nc2ccc(Cl)cc2C1c1ccccc1Cl (configuration not stated)	198 to 200
CC(C)(C)OC(=O)NN(C[C@H](O)[C@H](Cc1ccccc1)NC(=O)OCc1ccccc1)C1CCCCC1	142 to 143
NC(=O)CNC(=O)c1cccc(-c2cccc3cc(Cc4cccc(C(F)(F)F)c4)sc23)c1	147 to 148
COC(=O)c1ccc2c(c1)COc1ccc(/C=C/c3ccc4c(n3)CCCC4)cc1C2SCCC(=O)O (configuration not stated)	121 to 123
COC(=O)C(NS(=O)(=O)c1ccc(-c2ccc(NC(=O)c3oc4cccc(C(C)OC)c4c3C)cc2)cc1)C(C)C (configuration not stated)	186 to 188
CCN1N=C(c2ccc(F)cc2)c2cc(F)ccc2CS1(=O)=O	148 to 151
O=C1C2=C(CCCC2)C(=O)N1c1ccc(O)cc1F	132 to 136
CNCC(O)c1ccc(Cl)cc1 (configuration not stated)	84 to 86
COc1ccc(N2C(=O)C(=CN(C)C)c3ccccc32)cc1F	113 to 114
FC(F)(F)c1cccc(C2=CCN(CCc3ccc4cc[nH]c4c3)CC2)c1	168 to 169
O=c1cc(-c2ccoc2)c2ccc(Sc3cc(F)cc(-c4ccccc4)c3)cc2o1	122 to 124
CN(CCN1CCNC1=O)Cc1cn(-c2ccc(F)cc2)c2ccc(Cl)cc12	141 to 143
COc1ccc2c(c1)c1c3c(c(-c4ccccc4Cl)cc1n2CCC(=O)NS(=O)(=O)CCN(C)C)C(=O)NC3=O	208 to 213
CCOC(=O)C(C)Oc1cc(F)ccc1[N+](=O)[O-] (configuration not stated)	64 to 65
C=CCC1=C(Cl)C(=O)c2ccccc2C1=O	69 to 70
CCOC(=O)c1ccc(C(=O)OCC)nc1	46 to 47
CCCCCCCNC(=O)Nc1ccc(N(C)C)cc1C(=O)NCC1CCCN(C(c2ccccc2)c2ccccc2)C1 (configuration not stated)	142 to 144
COc1cc2c(cc1[N+](=O)[O-])C(C)CC1c3ccccc3CC1(C)C2 (configuration not stated)	90 to 94
CCCCc1nn(-c2ccccc2C(F)(F)F)c(=O)n1Cc1ccc(-c2ccccc2S(=O)(=O)NC(=O)c2ccccc2)cc1	91 to 93
COC(=O)C1(O)CN2CCC1CC2 (configuration not stated)	122
O=C(O)c1ccc(Br)cc1-c1cc(Cl)cc(Cl)c1	182 to 186

More lines, now with the values ahead:

melting point [°C]	SMILES
180 to 182	CCOC(=O)C1=C(C)Nc2ccnc(OC(C)C)c2C1c1cccc([N+](=O)[O-])c1 (configuration not stated)
231 to 232	N=C(N)NN=Cc1cccc(Cl)c1I
249 to 250	S=c1nc(-c2ccc(-c3ccccc3)cc2)[nH]n1Cc1ccccc1
223 to 227	COc1ccc(-c2ccc3nc(N)c4ncn(CC(C)C)c4c3c2)c(OC)c1
129 to 131	COC(=O)NNC(=S)Cc1ccc2ccccc2c1
93 to 94	CC(C)(C)[Si](C)(C)O[C@@H]1CO[C@H](c2cccnc2)[C@@H]1CCC(=O)O
168	CC(=O)c1ccc(C2CCC(CC(=O)NC3CCN(Cc4ccc(Cl)c(Cl)c4)CC3)CC2)cc1 (configuration not stated)
207 to 209	O=[N+]([O-])c1ccc(-c2nnc3ccc(N=CCN4CCCCC4)nn23)o1
119 to 123	CCN(CC)CCn1nc2c3c(c(NCCNCCO)ccc31)Sc1c(OC)ccc(OC)c1-2
126 to 128	CN(C)c1ccc(C(=O)Cc2cccc(Cl)c2)cc1
151 to 153	O=C(CC(O)(Cn1cncn1)c1ccc(Cl)cc1Cl)N1CC1 (configuration not stated)
148	CCOC(=O)c1cn(CC)c2nc(SC)ncc2c1=O
77 to 82	CC(C)(C)OC(=O)NNCc1ccc(Cl)cc1
173 to 175	CNC(=O)/C=C1\CCc2c(Cl)cc(F)cc21
230 to 232	CCNC1CCN(c2c(F)c(N)c3c(=O)c(C(=O)O)cn(C4CC4)c3c2OC)CC1C (configuration not stated)
175 to 176	CN(C)C1CC2=CNC=C3C=C(C=O)OCC1=C32 (configuration not stated)
153 to 155	COCC(O)COc1ccc2nc(S(N)(=O)=O)sc2c1 (configuration not stated)
163	O=C(C=Cc1cccc(S(=O)(=O)NCc2ccc3c(c2)OCO3)c1)NO
208 to 210	CC(=O)Nc1ccc(S(=O)(=O)Nc2onc(C)c2Br)cc1
121 to 124	COC(=O)c1cc2sccc2nc1C(=O)OC

melting point [°C]	SMILES
80 to 82	CCNC(=O)n1nc(Oc2c(Cl)cc(C(F)(F)F)cc2Cl)cc1C
> 300	Cc1cc2[nH]c3cc(Cl)ncc3c(=O)n2n1
181 to 184	NC(=O)N(O)CCNC(=O)c1cc2c(Cl)cccc2s1
106 to 107	CCCCc1nn(-c2ccc(C(F)(F)F)cn2)cc1CCCOc1ccccc1CC(=O)O
96 to 98	CC(C(=O)CC(C)(C)Cc1ccc(Cl)cc1)N1C(=O)c2ccccc2C1=O (configuration not stated)
204	COc1ccccc1C1CCC(=O)CC1(O)C(=O)O (configuration not stated)
125	CC(=O)N1c2ccccc2Sc2cc(F)ccc21
220 to 222	Cn1nnnc1-c1cn(C)c2ccccc2c1=O
> 300	N#Cc1cccc2c1ccc1nc(O)c(O)nc12
84 to 86	CC(=O)NC[C@H]1CN(c2ccc3c(c2)CS(=O)(=O)N3C)C(=O)O1
237 to 238	O=Cc1cn(-c2cccnc2)nc1-c1ccc([N+](=O)[O-])o1
157 to 160	COc1ccc(-c2cn3ccc(C)cc3n2)cc1
111 to 113	O=C(c1ccccc1)c1c(Cl)cc(CBr)cc1Cl
162 to 163	Clc1ccc(Cn2ccc3cc(OCc4nnn[nH]4)ccc32)cc1
188 to 190	CC(C)(C)OC(=O)Cn1c(=O)n(S(=O)(=O)c2ccc(Cl)cc2)c(=O)c2ccc(Cl)cc21
222 to 224	CCn1cc(C(=O)O)c(=O)c2cc(F)c(N3CC(C)C(CN)C3)c(F)c21 (configuration not stated)
128 to 131	O=S1(=O)NCN(C2CC2)c2c1ccc(Br)c2Cl
134 to 137	CC1(C)COC(=O)N1c1nc(-c2ccc(Cl)c(Cl)c2)cs1
138 to 141	COC[C@@H]1CCCN1S(=O)(=O)c1ccc2c(c1)C(=O)C1=NCCCN12
199 to 202	O=c1cc(C(F)(F)F)[nH]c(=O)n1Cc1cc(Cl)cc(Cl)c1Cl

melting point [°C]	SMILES
137	CC(CF)(CF)C(O)C(Oc1ccc(Cl)cc1)n1ccnc1 (configuration not stated)
183 to 184	COc1ccc(C(=O)Nc2cc([N+](=O)[O-])ccc2Br)cc1OC
148 to 149	CN1N=C(c2ccccc2Cl)N(C)N=C1c1ccccc1Cl
227	Cn1c(-c2ccc(OCC(=O)O)cc2)nc2c3ccccc3ccc21
266 to 267	Cc1cc2c(cc1C)OCCC(C(=O)O)=C2
55 to 57	O=C(N[C@@H]1CCC[C@H]1O)C(O)=CC(=O)c1cc(Cc2ccc(F)cc2F)cn(Cc2ccccc2F)c1=O
187 to 199	CCNC(=O)c1ccc(N2CCN(Cc3cc4c(c(OCC)c3)OC(C)C(=O)N4)CC2)c(Cl)c1 (configuration not stated)
104 to 106	Cn1c(=O)c2c(nc(N3CCC(NC(=O)OC(C)(C)C)C3)n2Cc2ccccc2Br)n(C)c1=O (configuration not stated)
98	CN(Cc1ccccc1)c1ncnc2c(N3CCOCC3)nc(N3CCC(N(C)C)CC3)nc12
163 to 165	CNc1nc(Cl)nc2c1ncn2C1CC(O)C(CO)O1 (configuration not stated)
112 to 114	Nc1nc(COCc2ccccc2)nc2nccnc12
156 to 158	CCCCCS(=O)(=O)NC(=O)CCc1cc(OCc2nnc(C)o2)nn1Cc1ccc(Cl)cc1Cl
128 to 131	CN(N)c1nc2ccccc2o1
229 to 230	OCc1c(F)cccc1-c1ccc2nc(-c3ccc(Cl)cc3)cn2c1
144 to 146	S=C(Nc1cccc(Cl)c1)N1CCCSC1c1ccc(Br)cc1 (configuration not stated)
174 to 177	CCn1c2ccccc2c2c3c(nc(C)c21)CC(C)(C)CC3=O
211 to 214	CC(C)N(Cc1nc(-c2ccccc2)no1)C(=O)COc1ccc(C(=O)O)cc1
259 to 260	O=S(=O)(c1ccccc1)n1ccc2c(Cl)nc(-c3ccccc3)nc21
115	Clc1ccccc1-c1nc2cc(Cn3ccnc3)ccc2[nH]1
120	COC(=O)CCCc1cc2nc(Cl)ccc2n1S(=O)(=O)c1ccc2c(c1)OCO2
